Measurements as given in patent US10238632B2, “Sigma receptor-binding agent” (FUJIFILM Toyama Chemical Co., Ltd., priority 2015, dated 2019).

What was measured:
[1] = test system: α1 (non-selective) receptor; test: Receptor binding assay, α1 (non-selective); conditions: rat cerebral cortex, compound A at 10 μM, [3H] prazosin (0.25 nM), 60 min./22° C
Procedure: (§1) The compound A was tested for ability to bind to 21 types of receptors. […]
(§2) The inhibition rate of the compound A for each radioligand was calculated by the following equation. 100−([measured specific binding]/[control specific binding]×100) Equation: […]
(§3) In the equation, the measured specific binding indicates the amount of binding radioactivity of each radioligand under the presence of the compound A and the corresponding reference compound, and the control specific binding indicates the amount of binding radioactivity of each radioligand under the presence of the corresponding reference compound.

[2] = test system: α2 (non-selective) receptor; test: Receptor binding assay, α2 (non-selective); conditions: rat cerebral cortex, compound A at 10 μM, [3H] RX 821002 (0.5 nM), 30 min./22° C.
Procedure: as §1, §2, §3

β2 receptor = target: T1, β2 receptor (Cavia porcellus, UniProt Q8K4Z4); test: Receptor binding assay, β2; conditions: guinea-pig lung, compound A at 10 μM, [3H] (−)CGP 12177 (+10 nM CGP 20712A) (0.4 nM), 40 min./22° C., read-out: Inhibition rate of compound A for radioligand (%)
T1 construct: guinea-pig lung; from tissue; host or cells: guinea-pig lung
Procedure: as §1, §2, §3

AT1 (h) receptor = target: T2, AT1 (h) receptor (Homo sapiens, UniProt P30556); test: Receptor binding assay, AT1 (h); conditions: human recombinant (CHO cells), compound A at 10 μM, [125I] [Sar1, Ile5]-AT II (0.05 nM), 60 min./37° C., read-out: Inhibition rate of compound A for radioligand (%)
T2 construct: expressed in transfected cells; host or cells: CHO cells
T2 sequence (P30556 whole entry): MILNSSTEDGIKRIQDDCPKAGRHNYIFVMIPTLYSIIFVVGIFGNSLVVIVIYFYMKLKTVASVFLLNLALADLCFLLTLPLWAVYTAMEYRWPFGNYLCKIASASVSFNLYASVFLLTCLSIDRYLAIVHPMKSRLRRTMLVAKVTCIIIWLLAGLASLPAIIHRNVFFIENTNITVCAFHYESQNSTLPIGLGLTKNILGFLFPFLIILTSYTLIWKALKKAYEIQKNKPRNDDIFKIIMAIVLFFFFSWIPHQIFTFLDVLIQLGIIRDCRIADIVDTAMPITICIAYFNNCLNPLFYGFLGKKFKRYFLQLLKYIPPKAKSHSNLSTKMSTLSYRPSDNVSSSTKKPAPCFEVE
Procedure: as §1, §2, §3

AT2 (h) receptor = target: T3, AT2 (h) receptor (Homo sapiens, UniProt P50052); test: Receptor binding assay, AT2 (h); conditions: human recombinant (Hela cells), compound A at 10 μM, [3H] GCP 42112A (0.05 nM), 180 min./37° C., read-out: Inhibition rate of compound A for radioligand (%)
T3 construct: expressed in transfected cells; host or cells: Hela cells
T3 sequence (P50052 whole entry): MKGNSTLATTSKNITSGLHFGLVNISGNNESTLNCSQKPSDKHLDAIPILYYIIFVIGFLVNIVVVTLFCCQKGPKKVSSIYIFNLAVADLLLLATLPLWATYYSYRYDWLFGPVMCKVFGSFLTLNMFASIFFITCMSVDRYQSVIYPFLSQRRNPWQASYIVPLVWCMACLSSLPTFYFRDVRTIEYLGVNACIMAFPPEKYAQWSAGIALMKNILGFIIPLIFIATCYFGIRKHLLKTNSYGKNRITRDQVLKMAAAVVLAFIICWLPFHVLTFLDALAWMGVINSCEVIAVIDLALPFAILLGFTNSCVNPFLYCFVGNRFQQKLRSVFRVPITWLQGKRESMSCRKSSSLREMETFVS
Procedure: as §1, §2, §3

BZD (central) receptor = test: Receptor binding assay, BZD (central); conditions: rat cerebral cortex, compound A at 10 μM, [3H] flunitrazepam (0.4 nM), 60 min./4° C.
Procedure: as §1, §2, §3

D1 receptor = target: T4, D1 receptor (Rattus norvegicus, UniProt P18901); test: Receptor binding assay, D1; conditions: rat striatum, compound A at 10 μM, [3H] SCH 23390 (0.3 nM), 45 min./22° C.
T4 construct: rat striatum; from tissue; host or cells: rat striatum
T4 sequence (P18901 whole entry): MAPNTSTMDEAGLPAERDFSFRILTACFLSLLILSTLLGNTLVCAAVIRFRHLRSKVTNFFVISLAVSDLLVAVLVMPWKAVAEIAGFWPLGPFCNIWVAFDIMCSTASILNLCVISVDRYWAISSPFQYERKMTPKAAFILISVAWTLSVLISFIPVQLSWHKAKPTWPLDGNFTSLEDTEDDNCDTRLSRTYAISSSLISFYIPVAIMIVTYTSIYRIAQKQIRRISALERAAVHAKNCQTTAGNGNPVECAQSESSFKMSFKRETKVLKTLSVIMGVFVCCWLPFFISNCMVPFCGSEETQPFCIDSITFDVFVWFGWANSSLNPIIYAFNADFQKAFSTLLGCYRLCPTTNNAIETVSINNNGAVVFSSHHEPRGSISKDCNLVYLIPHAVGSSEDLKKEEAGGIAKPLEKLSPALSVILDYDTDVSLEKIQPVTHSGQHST
Procedure: as §1, §2, §3

D2 receptor = target: T5, D2 receptor (Rattus norvegicus, UniProt P61169); test: Receptor binding assay, D2; conditions: rat striatum, compound A at 10 μM, [3H] YM-09151-2 (0.1 nM), 60 min./22° C.
T5 construct: rat striatum; from tissue; host or cells: rat striatum
T5 sequence (P61169 whole entry): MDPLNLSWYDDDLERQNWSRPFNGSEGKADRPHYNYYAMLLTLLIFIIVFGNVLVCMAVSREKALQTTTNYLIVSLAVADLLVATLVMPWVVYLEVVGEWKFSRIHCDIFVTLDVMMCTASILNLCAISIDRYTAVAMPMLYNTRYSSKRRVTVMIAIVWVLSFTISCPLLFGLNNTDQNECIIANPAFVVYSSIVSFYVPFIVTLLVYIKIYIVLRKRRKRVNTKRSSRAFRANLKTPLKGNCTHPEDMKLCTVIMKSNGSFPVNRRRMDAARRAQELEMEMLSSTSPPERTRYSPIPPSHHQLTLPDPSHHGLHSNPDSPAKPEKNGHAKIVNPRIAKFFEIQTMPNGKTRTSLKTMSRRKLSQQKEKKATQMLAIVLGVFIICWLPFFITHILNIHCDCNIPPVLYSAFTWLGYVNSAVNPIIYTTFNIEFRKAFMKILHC
Procedure: as §1, §2, §3

GABAA receptor = test: Receptor binding assay, GABAA; conditions: rat cerebral cortex, compound A at 10 μM, [3H] muscimol (5 nM), 10 min./4° C.
Procedure: as §1, §2, §3

GABAB receptor = target: T6, GABAB receptor (Rattus norvegicus, UniProt Q9Z0U4); test: Receptor binding assay, GABAB; conditions: rat cerebral cortex, compound A at 10 μM, [3H] GABA (+40 μM isoguvacine) (10 nM), 10 min./22° C., read-out: Inhibition rate of compound A for radioligand (%)
T6 construct: rat cerebral cortex; from tissue; host or cells: rat cerebral cortex
T6 sequence (Q9Z0U4 20-960): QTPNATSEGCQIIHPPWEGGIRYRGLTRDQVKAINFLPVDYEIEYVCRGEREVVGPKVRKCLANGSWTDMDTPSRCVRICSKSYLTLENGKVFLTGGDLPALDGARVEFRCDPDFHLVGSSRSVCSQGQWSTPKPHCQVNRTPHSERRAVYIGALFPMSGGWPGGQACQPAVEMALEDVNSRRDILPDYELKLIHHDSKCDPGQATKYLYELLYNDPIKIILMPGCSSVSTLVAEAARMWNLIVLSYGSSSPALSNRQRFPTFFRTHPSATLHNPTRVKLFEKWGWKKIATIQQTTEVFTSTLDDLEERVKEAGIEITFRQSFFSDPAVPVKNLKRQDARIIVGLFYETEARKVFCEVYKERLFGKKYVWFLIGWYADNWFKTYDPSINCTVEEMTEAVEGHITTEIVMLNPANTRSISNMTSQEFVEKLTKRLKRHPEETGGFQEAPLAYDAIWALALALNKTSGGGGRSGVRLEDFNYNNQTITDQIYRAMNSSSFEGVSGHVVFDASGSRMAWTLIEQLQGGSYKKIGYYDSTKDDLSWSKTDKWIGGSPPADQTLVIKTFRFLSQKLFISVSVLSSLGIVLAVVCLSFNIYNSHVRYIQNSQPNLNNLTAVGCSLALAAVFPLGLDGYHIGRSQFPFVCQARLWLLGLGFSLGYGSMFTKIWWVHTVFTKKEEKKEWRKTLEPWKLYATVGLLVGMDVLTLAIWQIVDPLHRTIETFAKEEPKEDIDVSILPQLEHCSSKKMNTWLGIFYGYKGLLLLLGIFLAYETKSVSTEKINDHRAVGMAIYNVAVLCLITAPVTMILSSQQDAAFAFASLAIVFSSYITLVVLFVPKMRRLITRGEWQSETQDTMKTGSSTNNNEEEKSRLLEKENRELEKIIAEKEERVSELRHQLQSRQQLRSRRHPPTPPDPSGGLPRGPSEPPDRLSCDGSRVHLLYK
T6 sequence (O88871 41-940 partner): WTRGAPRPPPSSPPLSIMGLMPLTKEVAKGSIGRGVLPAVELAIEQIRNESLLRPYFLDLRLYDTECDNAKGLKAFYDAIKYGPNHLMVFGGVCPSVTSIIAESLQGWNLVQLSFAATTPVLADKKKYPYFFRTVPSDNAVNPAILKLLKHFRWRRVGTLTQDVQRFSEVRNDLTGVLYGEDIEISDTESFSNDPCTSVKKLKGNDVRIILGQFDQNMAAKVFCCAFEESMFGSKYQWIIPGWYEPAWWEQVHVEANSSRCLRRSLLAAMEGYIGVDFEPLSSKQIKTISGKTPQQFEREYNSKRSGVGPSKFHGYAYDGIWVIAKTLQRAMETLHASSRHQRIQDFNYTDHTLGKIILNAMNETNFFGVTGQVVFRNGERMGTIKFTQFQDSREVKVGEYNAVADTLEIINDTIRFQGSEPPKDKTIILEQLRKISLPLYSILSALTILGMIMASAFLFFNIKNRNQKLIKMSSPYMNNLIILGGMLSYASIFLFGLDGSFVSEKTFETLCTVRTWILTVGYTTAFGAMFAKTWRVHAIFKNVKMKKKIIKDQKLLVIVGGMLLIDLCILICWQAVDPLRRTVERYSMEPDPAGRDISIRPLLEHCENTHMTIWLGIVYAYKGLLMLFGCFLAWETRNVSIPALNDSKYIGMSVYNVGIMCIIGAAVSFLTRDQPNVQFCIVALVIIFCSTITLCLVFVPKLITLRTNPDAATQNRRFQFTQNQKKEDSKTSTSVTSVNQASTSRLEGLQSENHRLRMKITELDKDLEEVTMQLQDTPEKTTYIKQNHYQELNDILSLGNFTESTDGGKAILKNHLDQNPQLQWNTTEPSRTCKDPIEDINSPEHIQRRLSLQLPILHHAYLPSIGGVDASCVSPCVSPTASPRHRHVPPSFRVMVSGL
Procedure: as §1, §2, §3

NMDA receptor = test: Receptor binding assay, NMDA; conditions: rat cerebral cortex, compound A at 10 μM, [3H] CGP 39653 (5 nM), 60 min./4° C.
Procedure: as §1, §2, §3

H1 (h) receptor = target: T7, H1 (h) receptor (Homo sapiens, UniProt P35367); test: Receptor binding assay, H1 (h); conditions: human recombinant (HEK-293 cells), compound A at 10 μM, [3H] pyrilamine (3 nM), 60 min./22° C., read-out: Inhibition rate of compound A for radioligand (%)
T7 construct: expressed in transfected cells; host or cells: HEK-293 cells
Procedure: as §1, §2, §3

H2 receptor = target: T8, H2 receptor (Cavia porcellus, UniProt P47747); test: Receptor binding assay, H2; conditions: guinea-pig striatum, compound A at 10 μM, [3H] APT (0.1 nM), 150 min/22° C., read-out: Inhibition rate of compound A for radioligand (%)
T8 construct: guinea-pig striatum; from tissue; host or cells: guinea-pig striatum
T8 sequence (P47747 whole entry): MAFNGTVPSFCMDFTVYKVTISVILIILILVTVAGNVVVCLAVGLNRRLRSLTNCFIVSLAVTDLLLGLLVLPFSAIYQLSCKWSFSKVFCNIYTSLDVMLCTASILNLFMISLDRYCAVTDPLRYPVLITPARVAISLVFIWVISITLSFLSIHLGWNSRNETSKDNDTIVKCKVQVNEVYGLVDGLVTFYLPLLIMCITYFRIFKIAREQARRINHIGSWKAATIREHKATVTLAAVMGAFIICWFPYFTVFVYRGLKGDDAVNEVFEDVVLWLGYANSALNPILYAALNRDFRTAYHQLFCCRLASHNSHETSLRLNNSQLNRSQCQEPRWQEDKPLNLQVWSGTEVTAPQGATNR
Procedure: as §1, §2, §3

M1 receptor = target: T9, M1 receptor (Rattus norvegicus, UniProt P08482); test: Receptor binding assay, M1; conditions: rat cerebral cortex, compound A at 10 μM, [3H] pirenzepine (1 nM), 60 min./22° C., read-out: Inhibition rate of compound A for radioligand (%)
T9 construct: rat cerebral cortex; from tissue; host or cells: rat cerebral cortex
T9 sequence (P08482 whole entry): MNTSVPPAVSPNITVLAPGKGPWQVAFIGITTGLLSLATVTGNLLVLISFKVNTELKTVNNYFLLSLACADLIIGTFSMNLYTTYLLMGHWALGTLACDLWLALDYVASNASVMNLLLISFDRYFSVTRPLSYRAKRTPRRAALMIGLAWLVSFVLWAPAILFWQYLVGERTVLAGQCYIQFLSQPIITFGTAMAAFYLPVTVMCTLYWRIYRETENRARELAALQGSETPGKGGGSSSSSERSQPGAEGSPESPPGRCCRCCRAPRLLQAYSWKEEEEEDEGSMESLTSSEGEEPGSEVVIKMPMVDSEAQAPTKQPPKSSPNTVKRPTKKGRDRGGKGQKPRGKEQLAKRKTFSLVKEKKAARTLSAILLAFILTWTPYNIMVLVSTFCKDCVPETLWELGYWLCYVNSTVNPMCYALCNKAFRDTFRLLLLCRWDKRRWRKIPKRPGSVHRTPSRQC
Procedure: as §1, §2, §3

M2 (h) receptor = target: T10, M2 (h) receptor (Homo sapiens, UniProt P08172); test: Receptor binding assay, M2 (h); conditions: human recombinant (CHO cells), compound A at 10 μM, [3H] AF-DX 384 (2 nM), 60 min./22° C.
T10 construct: expressed in transfected cells; host or cells: CHO cells
Procedure: as §1, §2, §3

[3] = test system: N (neuronal) (α-BGTX-insensitive) receptor; test: Receptor binding assay, N (neuronal) (α-BGTX-insensitive); conditions: rat cerebral cortex, compound A at 10 μM, [3H] cytisine (1.5 nM), 75 min./4° C.
Procedure: as §1, §2, §3

[4] = test system: 5-HT (non-selective) receptor; test: Receptor binding assay, 5-HT (non-selective); conditions: rat cerebral cortex, compound A at 10 μM, [3H] serotonin (2 nM), 15 min./37° C.
Procedure: as §1, §2, §3

[5] = test system: σ (non-selective) receptor; test: Receptor binding assay, σ (non-selective); conditions: rat cerebral cortex, compound A at 10 μM, [3H] DTG (8 nM), 120 min./22° C.
Procedure: as §1, §2, §3

TH receptor = test: Receptor binding assay, TH; conditions: rat liver, compound A at 10 μM, [125I] T3 (0.1 nM), 18 h/4° C.
Procedure: as §1, §2, §3

TRH receptor = test: Receptor binding assay, TRH; conditions: rat cerebral cortex, compound A at 10 μM, [3H] Me-TRH (2 nM), 6 h/4° C.
Procedure: as §1, §2, §3

[6] = target: T11, sigma-1 receptors expressed in Jurkat cells (Homo sapiens, UniProt Q99720); test: Identification of sigma-1 receptor inhibition constant; format: binding; conditions: 15 nM [3H] (+)-pentazocine, 37° C. for 120 minutes, Cheng-Prusoff equation
T11 construct: In the sigma-1 receptors expressed in Jurkat cells; endogenous in cells; host or cells: Jurkat cells
T11 sequence (Q99720 whole entry): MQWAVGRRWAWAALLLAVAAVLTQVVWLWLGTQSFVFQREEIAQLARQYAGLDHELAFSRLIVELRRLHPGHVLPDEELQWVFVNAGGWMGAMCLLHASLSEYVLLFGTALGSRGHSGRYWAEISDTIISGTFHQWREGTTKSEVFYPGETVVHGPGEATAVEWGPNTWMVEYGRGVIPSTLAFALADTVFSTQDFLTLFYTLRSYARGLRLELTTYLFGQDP
Procedure: The sigma-1 receptor inhibition constant of the compound A (Ki value) was identified. The test was conducted by a method described below in accordance with Ganapathy, M. E. (1999).
(+)-pentazocine. The reaction was conducted at 37° C. for 120 minutes. The inhibition rate was calculated in the same manner as described in Test Example 1. The Ki value was identified in accordance with the Cheng-Prusoff equation by calculating IC50 based on nonlinear regression analysis.

[7] = target: T12, sigma-2 receptors expressed in Jurkat cells (Homo sapiens, UniProt Q5BJF2); test: Identification of sigma-2 receptor inhibition constant; format: binding; conditions: 25 nM [3H] DTG under the presence of 1 μM (+)-pentazocine, room temperature for 60 minutes, Cheng-Prusoff equation
T12 construct: In the sigma-2 receptors expressed in Jurkat cells; endogenous in cells; host or cells: Jurkat cells
T12 sequence (Q5BJF2 whole entry): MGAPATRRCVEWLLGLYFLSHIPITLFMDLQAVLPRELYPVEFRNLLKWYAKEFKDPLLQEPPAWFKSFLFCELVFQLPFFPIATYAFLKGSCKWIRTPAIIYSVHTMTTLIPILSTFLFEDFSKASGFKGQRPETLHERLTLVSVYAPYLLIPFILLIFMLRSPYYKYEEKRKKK
Procedure: The sigma-2 receptor inhibition constant of the compound A (Ki value) was identified. The test was conducted by a method described below in accordance with Ganapathy, M. E. (1999).
DTG under the presence of 1 μM (+)-pentazocine. The reaction was conducted at room temperature for 60 minutes. The inhibition rate was calculated in the same manner as described in Test Example 1. The Ki value was identified in accordance with the Cheng-Prusoff equation by calculating IC50 based on nonlinear regression analysis.

For `O=C(O)/C=C\C(=O)O.OC1CN(CCCOCCc2ccc3sccc3c2)C1` [compound A, 1-(3-(2-(1-benzothiophene-5-yl)ethoxy)propyl)azetidine-3-ol maleate], the “Inhibition rate of compound A for radioligand (%)” value (“Inhibition rate … (%)” below) [1] was 36%, the “Inhibition rate … (%)” value [2] was 40% and the inhibition at 10 µM (β2 receptor) was 5%. For the same compound, the inhibition at 10 µM (AT1 (h) receptor) was -2%, the inhibition at 10 µM (AT2 (h) receptor) was -13% and the “Inhibition rate … (%)” value (BZD (central) receptor) was 25%. The “Inhibition rate … (%)” value (D1 receptor) was 1%, the “Inhibition rate … (%)” value (D2 receptor) was 21% and the “Inhibition rate … (%)” value (GABAA receptor) was −8%. The inhibition at 10 µM (GABAB receptor) was 4%, the “Inhibition rate … (%)” value (NMDA receptor) was 16% and the inhibition at 10 µM (H1 (h) receptor) was -15%. The inhibition at 10 µM (H2 receptor) was 72%, the inhibition at 10 µM (M1 receptor) was 43% and the “Inhibition rate … (%)” value (M2 (h) receptor) was 19%. For the same compound, the “Inhibition rate … (%)” value [3] was 12%, the “Inhibition rate … (%)” value [4] was 2% and the “Inhibition rate … (%)” value [5] was 99%. The “Inhibition rate … (%)” value (TH receptor) was −5%, the “Inhibition rate … (%)” value (TRH receptor) was 1% and the Ki [6] was 16 nM. For the same compound, the Ki [7] was 160 nM.
